Measurements taken from patent US8592152B2, “Gene detection assay for improving the likelihood of an effective response to an EGFR antagonist cancer therapy” (Genentech, Inc., priority 2000, dated 2013).

Test system: metastatic breast cancer
Assay: FISH/clinical outcome study: chemotherapy +/- Herceptin, 1st line therapy
Type: in vivo, human
Description: The Clinical Testing Assay (CTA) involves two separate IHC assays performed with either monoclonal antibodies 4D5 (after protease digestion of the formalin fixed sample) or CB11 (after heat treatment of the formalin fixed sample). Subjects were eligible if either assay was scored at 2+ or 3+. If both were performed, the final score was the higher of the two results. […] Thus, formalin-fixed cut sections stored between 2.5 and 4.5 years from 540 subjects provided the sample pool for this study.

| Compound | Response rate of newly defined populations (2+/3+ population (469)) | Survival of newly defined populations (2+/3+ population (469)) [months] | Time to progression of newly defined populations (2+/3+ population (469)) [months] | Response rate of newly defined populations (3+ population (349)) | Survival of newly defined populations (3+ population (349)) [months] | Time to progression of newly defined populations (3+ population (349)) [months] | Response rate of newly defined populations (FISH+ population (240)) | Survival of newly defined populations (FISH+ population (240)) [months] | Time to progression of newly defined populations (FISH+ population (240)) [months] |
| --- | --- | --- | --- | --- | --- | --- | --- | --- | --- |
| adrinomycin and cyclophosphamide [AC] | 42 | 21 | 6.1 | 42 | 21 | 6.0 | 40 | 20 | 6.2 |
| CC(=O)O[C@H]1C(=O)[C@@]2(C)[C@H]([C@H](OC(=O)c3ccccc3)[C@]3(O)C[C@H](OC(=O)[C@H](O)[C@@H](NC(=O)c4ccccc4)c4ccccc4)C(C)=C1C3(C)C)[C@]1(OC(C)=O)CO[C@@H]1C[C@@H]2O [P, Paditaxol] | 17 | 18 | 2.7 | 17 | 18 | 3.0 | 14 | 14 | 3.2 |
